These results are taken from patent US8574604B2, “Methods and compositions for the delivery of biologically active agents” (Interface Biologics, Inc., priority 2005, dated 2013).

The series is described as follows: UV/Vis measurement of Methyl Violet complexation by CyD-OF. The format is physicochemical. The conditions noted are these: Methyl Violet 0.01 mg/mL in DMSO; decrease in absorbance indicates complexation. The method, then: CyD-OF (3a) ([…]) was dissolved in DMSO (75 μL). A solution of Methyl Violet (MV, 2.8 mg) in DMSO (28 mL) was prepared at 0.1 mg/mL. One mL of Methyl Violet solution was further diluted with DMSO (10 mL) to form a 0.01 mg/mL solution. The CyD-OF solution (75 μL) was added dropwise to a solution of MV (500 μL) in a 4 mL glass vial over the course of ten minutes. This solution was sealed and left in the dark for 12 hours. A UV/Vis measurement of the Methyl Violet solution at 0.01 mg/mL was taken (A (591 nm)=0.96) as control. The UV/Vis spectrum of the CyD-OF was measured at A (591 nm)=0.63, indicating the intensity of the guest molecules evidently to change upon the addition of molecular receptors. Upon complexation the absorbance decreased, confirming the formation of a complex. A control solution was also prepared.

As for Methyl Violet, the “UV/Vis absorbance A (591 nm)” value worked out at 0.96.
